From ChEMBL document CHEMBL1141294, “Renierosides, cerebrosides from a marine sponge Haliclona (Reniera) sp” (2007)

Key:
Type in all cases: functional
Conditions in all cases: read-out: ED50 (the source's name)
[1] = test system: A549; test: Cytotoxicity against human A549 cells
[2] = test system: SK-OV-3; test: Cytotoxicity against human SK-OV-3 cells
[3] = test system: SK-MEL-2; test: Cytotoxicity against human SK-MEL-2 cells
[4] = test system: XF498; test: Cytotoxicity against human XF498 cells
[5] = test system: HCT-15; test: Cytotoxicity against human HCT15 cells

Measured: EC50

CCCCCCC/C=C/C=C/CC/C=C/[C@@H](O)[C@H](CO[C@@H]1O[C@H](CO)[C@@H](O)[C@H](O)[C@H]1O)NC(=O)[C@H](O)CCCCCCCCCCCCCC/C=C\CCCCCCCC [RENIEROSIDE A2]
> 10 µg/mL: all assays above

CCCCCC/C=C\CCCCCCCCCCCCCCCCCC[C@@H](O)C(=O)N[C@@H](CO[C@@H]1O[C@H](CO)[C@@H](O)[C@H](O)[C@H]1O)[C@H](O)/C=C/CC/C=C(C)/C=C/CCCCCCC [RENIEROSIDE B1]
> 10 µg/mL: all assays above

CCCCCCC/C=C/C=C/CC/C=C/[C@@H](O)[C@H](CO[C@@H]1O[C@H](CO)[C@@H](O)[C@H](O)[C@H]1O)NC(=O)[C@H](O)CCCCCCCCCCCCC/C=C\CCCCCCCC [RENIEROSIDE A3]
> 10 µg/mL: all assays above

CCCCCC/C=C\CCCCCCCCCCCCCCCCC[C@@H](O)C(=O)N[C@@H](CO[C@@H]1O[C@H](CO)[C@@H](O)[C@H](O)[C@H]1O)[C@H](O)/C=C/CC/C=C(C)/C=C/CCCCCCC [RENIEROSIDE B3]
> 10 µg/mL: all assays above

CCCCCC/C=C\CCCCCCCCCCCCCCCCCC[C@@H](O)C(=O)N[C@@H](CO[C@@H]1O[C@H](CO)[C@@H](O)[C@H](O)[C@H]1O)[C@H](O)/C=C/CC/C=C/C=C/CCCCCCC [RENIEROSIDE A1]
> 10 µg/mL: all assays above

CCCCCCC/C=C/C=C/CC/C=C/[C@@H](O)[C@H](CO[C@@H]1O[C@H](CO)[C@@H](O)[C@H](O)[C@H]1O)NC(=O)[C@H](O)CCCCCCCCCCCCCCCCCCCCCC [RENIEROSIDE A5]
> 10 µg/mL: all assays above

CCCCCCC/C=C/C(C)=C/CC/C=C/[C@@H](O)[C@H](CO[C@@H]1O[C@H](CO)[C@@H](O)[C@H](O)[C@H]1O)NC(=O)[C@H](O)CCCCCCCCCCCCCC/C=C\CCCCCCCC [RENIEROSIDE B2]
> 10 µg/mL: all assays above

CCCCCCC/C=C/C=C/CC/C=C/[C@@H](O)[C@H](CO[C@@H]1O[C@H](CO)[C@@H](O)[C@H](O)[C@H]1O)NC(=O)[C@H](O)CCCCCCCCCCCCCCCCCCCC [RENIEROSIDE A4]
> 10 µg/mL: all assays above
